Reference: ChEMBL document CHEMBL1130217, “Use of a pharmacophore model for the design of EGF-R tyrosine kinase inhibitors: 4-(phenylamino)pyrazolo[3,4-d]pyrimidines” (J Med Chem, 1997)
Values joined by “and” are separate entries in the source; they are usually repeats but may differ in a detail not shown here. Equal values may be shown once.

Legend:
[1] = molecular target: Protein kinase C alpha type (Homo sapiens, UniProt P17252); assay: Inhibitory activity against protein kinase C alpha […] kinase.
[2] = molecular target: Platelet-derived growth factor receptor (Homo sapiens, UniProt P09619+P16234); assay: Inhibition of PDGF stimulated tyrosine phosphorylation in BALB/c3t3 cells.
[3] = molecular target: T1, Proto-oncogene tyrosine-protein kinase Src (Homo sapiens, UniProt P12931); assay: Inhibitory activity against c-Src tyrosine kinase
[4] = molecular target: T2, Epidermal growth factor receptor (Homo sapiens, UniProt P00533); assay: Inhibition of EGF-stimulated tyrosine phosphorylation in A431 cells.
[5] = molecular target: T2, Epidermal growth factor receptor
Description: Inhibitory activity against epidermal growth factor receptor tyrosine kinase.

[6] = molecular target: Cyclin-dependent kinase 1 (Homo sapiens, UniProt P06493); assay: Inhibitory activity against CDK1 Ser/Thr kinase
Balb/MK [7] = assay: Inhibition of proliferation of EGF-dependent BALB/MK cells.; format: functional, cell-based; details: Mus musculus
[8] = molecular target: Tyrosine-protein kinase ABL1 (Homo sapiens, UniProt P00519)
Description: Inhibitory activity against v-Abl tyrosine kinase

[9] = molecular target: T1, Proto-oncogene tyrosine-protein kinase Src; assay: Inhibition of c-Src tyrosine kinase
A-431 [10] = assay: In vivo activity against A431 xenografts in mice at 50 mg/kg ip dose; format: functional; details: route intraperitoneal
A-431 [11] = assay: In vivo activity against A431 xenografts in mice at 12.5 mg/kg ip dose; format: functional; details: route intraperitoneal
A-431 [12] = assay: In vivo activity against A431 xenografts in mice at 12.5 mg/kg peroral dose; format: functional; details: route oral
Balb/MK [13] = assay: Inhibition of proliferation of EGF-dependent BALB/MK cells; format: functional, cell-based; details: Mus musculus

Sequence of Cyclin-dependent kinase 1 (P06493 whole entry): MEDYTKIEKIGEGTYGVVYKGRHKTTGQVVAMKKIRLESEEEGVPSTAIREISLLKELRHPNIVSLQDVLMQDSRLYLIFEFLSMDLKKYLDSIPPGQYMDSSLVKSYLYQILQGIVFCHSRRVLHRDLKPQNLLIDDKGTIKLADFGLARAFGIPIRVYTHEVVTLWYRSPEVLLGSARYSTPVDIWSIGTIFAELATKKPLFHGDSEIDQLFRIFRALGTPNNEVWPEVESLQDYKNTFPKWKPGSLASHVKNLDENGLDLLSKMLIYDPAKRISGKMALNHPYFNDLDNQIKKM
T1 sequence (P12931 2-536 limits assumed): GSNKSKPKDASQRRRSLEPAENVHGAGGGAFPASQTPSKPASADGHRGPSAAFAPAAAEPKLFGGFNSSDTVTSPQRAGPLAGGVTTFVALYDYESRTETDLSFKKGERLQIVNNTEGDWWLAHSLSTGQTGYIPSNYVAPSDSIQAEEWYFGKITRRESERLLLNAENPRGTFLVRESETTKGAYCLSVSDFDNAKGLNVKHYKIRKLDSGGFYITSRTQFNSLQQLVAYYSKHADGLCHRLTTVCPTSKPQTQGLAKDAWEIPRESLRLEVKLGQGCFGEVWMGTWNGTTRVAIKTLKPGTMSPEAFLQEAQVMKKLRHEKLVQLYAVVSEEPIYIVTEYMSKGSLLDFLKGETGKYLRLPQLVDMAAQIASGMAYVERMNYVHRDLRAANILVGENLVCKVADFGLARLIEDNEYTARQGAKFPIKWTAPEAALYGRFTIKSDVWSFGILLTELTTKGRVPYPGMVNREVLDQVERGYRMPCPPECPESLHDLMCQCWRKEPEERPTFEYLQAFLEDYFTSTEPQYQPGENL
Sequence of Tyrosine-protein kinase ABL1 (P00519 whole entry, looked up): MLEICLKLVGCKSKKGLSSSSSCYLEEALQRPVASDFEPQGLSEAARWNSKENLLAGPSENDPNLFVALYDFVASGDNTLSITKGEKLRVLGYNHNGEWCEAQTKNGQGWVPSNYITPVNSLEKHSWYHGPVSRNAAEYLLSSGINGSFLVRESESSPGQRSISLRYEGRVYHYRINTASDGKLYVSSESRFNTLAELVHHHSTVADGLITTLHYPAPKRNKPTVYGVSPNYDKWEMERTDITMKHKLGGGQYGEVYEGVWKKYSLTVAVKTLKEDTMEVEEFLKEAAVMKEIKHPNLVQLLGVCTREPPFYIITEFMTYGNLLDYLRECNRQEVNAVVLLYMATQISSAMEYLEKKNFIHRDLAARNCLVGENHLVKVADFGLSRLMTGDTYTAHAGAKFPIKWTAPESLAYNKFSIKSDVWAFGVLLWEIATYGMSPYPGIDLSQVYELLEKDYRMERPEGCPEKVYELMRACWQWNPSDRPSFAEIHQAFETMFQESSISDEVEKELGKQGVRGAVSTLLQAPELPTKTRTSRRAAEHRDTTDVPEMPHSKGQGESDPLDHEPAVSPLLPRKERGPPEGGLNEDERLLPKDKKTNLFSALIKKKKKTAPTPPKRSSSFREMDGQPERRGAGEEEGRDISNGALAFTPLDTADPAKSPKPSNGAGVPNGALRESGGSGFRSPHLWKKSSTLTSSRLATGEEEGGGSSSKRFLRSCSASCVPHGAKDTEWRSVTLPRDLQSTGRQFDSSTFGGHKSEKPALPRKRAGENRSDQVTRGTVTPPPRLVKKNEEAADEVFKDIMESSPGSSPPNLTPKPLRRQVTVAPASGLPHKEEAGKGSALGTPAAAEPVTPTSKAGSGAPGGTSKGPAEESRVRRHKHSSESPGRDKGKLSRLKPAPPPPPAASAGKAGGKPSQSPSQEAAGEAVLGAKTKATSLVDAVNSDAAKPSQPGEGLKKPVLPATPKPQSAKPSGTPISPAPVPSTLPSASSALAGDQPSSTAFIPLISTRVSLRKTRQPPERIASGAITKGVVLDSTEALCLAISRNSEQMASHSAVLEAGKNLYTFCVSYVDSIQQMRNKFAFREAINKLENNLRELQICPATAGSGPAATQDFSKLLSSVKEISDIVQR
T2 sequence (P00533 whole entry): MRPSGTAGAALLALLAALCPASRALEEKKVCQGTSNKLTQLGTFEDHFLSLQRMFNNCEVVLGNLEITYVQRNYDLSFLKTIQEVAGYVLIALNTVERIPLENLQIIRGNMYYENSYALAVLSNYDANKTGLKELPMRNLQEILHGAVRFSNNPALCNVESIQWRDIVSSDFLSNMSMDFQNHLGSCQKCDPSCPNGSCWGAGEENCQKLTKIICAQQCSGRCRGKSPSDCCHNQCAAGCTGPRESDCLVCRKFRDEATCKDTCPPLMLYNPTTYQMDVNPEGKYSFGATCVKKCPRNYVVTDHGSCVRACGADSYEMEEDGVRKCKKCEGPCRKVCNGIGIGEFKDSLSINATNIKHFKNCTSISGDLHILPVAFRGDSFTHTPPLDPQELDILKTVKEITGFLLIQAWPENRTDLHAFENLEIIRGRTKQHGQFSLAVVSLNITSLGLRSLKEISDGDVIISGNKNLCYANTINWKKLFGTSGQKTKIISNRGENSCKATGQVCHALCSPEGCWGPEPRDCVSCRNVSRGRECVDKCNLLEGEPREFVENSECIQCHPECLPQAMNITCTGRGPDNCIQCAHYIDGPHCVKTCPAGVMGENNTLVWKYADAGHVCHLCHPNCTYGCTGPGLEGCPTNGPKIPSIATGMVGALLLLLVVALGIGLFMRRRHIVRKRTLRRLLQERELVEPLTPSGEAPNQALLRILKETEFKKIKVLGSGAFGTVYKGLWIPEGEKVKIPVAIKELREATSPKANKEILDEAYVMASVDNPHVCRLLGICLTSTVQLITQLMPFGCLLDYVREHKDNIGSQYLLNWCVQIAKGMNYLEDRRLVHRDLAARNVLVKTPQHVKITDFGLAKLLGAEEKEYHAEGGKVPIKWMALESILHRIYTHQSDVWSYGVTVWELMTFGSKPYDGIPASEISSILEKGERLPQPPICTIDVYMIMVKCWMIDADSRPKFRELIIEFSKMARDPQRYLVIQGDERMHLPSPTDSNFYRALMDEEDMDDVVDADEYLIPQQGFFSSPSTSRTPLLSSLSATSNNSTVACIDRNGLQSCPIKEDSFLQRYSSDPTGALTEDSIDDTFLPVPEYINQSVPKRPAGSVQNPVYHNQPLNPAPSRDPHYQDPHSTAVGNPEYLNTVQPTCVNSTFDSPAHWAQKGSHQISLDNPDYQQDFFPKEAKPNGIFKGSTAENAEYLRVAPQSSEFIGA

| IC50 [1] | IC50 [2] | IC50 [3] | IC50 [4] | IC50 [5] | IC50 [6] | IC50 [8] | SMILES | IC50 (Balb/MK [7]) | IC50 [9] | T/C (A-431 [10]) | T/C (A-431 [11]) | T/C (A-431 [12]) | IC50 (Balb/MK [13]) |
| --- | --- | --- | --- | --- | --- | --- | --- | --- | --- | --- | --- | --- | --- |
| > 100000 nM | > 10000 nM | > 10000 nM | 200 nM | 8 nM | 3100 nM | 3500 nM | COc1cccc(CNc2[nH]nc3ncnc(Nc4cccc(Cl)c4)c23)c1 | 810 nM | – | – | – | – | – |
| 10000 nM | > 10000 nM | > 10000 nM | 3 nM | 7 nM | 7400 nM | 6600 nM | Clc1cccc(Nc2[nH]cnc3nnc(NCc4ccccc4)c2-3)c1 | 300 nM | – | – | – | – | – |
| > 100000 nM | > 10000 nM | > 10000 nM | > 100000 nM | 24200 nM | – | > 10000 nM | Clc1cccc(Nc2[nH]nc3ncnc(Oc4cccc(Cl)c4)c23)c1 | > 50000 nM | – | – | – | – | – |
| 2900 nM | 10000 nM | > 10000 nM | 1500 nM | 29 nM | 350 nM | > 10000 nM | CN(C)c1ccc(Nc2[nH]nc3ncnc(Nc4cccc(Cl)c4)c23)cc1 | 1550 nM | – | – | – | – | – |
| – | – | – | – | 450000 nM | – | – | Cc1c(C)n(C)c2ncnc(Nc3cccc(Cl)c3)c12 | – | – | – | – | – | – |
| > 100000 nM | – | 1400 nM | – | – | 100000 nM | – | COc1cc2ncnc(Nc3cccc(Br)c3)c2cc1OC | 200 nM | – | – | – | – | – |
| > 10000 nM | > 10000 nM | > 10000 nM | > 100000 nM | > 10000 nM | 57000 nM | > 10000 nM | CC(C)(C)OC(=O)Nc1ccc(Nc2[nH]nc3ncnc(Nc4cccc(Cl)c4)c23)cc1 | > 10000 nM | – | – | – | – | – |
| 3800 nM | > 10000 nM | – | < 800 nM | 130 nM | – | 1360 nM | Clc1cccc(Nc2[nH]nc3ncnc(Nc4cccc(Br)c4)c23)c1 | 1430 nM | > 10000 nM | – | – | – | – |
| > 10000 nM | > 10000 nM | 9800 nM | > 100000 nM | 270 nM | > 100000 nM | > 10000 nM | O=[N+]([O-])c1cccc(-c2[nH]nc3ncnc(Nc4cccc(Cl)c4)c23)c1 | > 50000 nM | – | – | – | – | – |
| – | – | – | – | 15000 nM | – | – | Nc1ncnc2c1ncn2-c1ccccc1 | – | – | – | – | – | – |
| 1850 nM | > 10000 nM | 8550 nM | 500 nM | 6 nM | 260 nM | 240 nM | Oc1ccc(-c2[nH]nc3ncnc(Nc4cccc(Cl)c4)c23)cc1 | 560 nM | – | – | – | – | – |
| 1500 nM | > 10000 nM | > 10000 nM | 800 nM | 5 nM | 680 nM | 3090 nM | Nc1cccc(-c2[nH]nc3ncnc(Nc4cccc(Cl)c4)c23)c1 | 940 nM | – | – | – | – | – |
| – | – | – | – | 2700 nM | – | – | Nc1ncnc2c1cnn2-c1ccccc1 | – | – | – | – | – | – |
| 7800 nM | > 10000 nM | 2250 nM | 1000 nM | 84 nM | – | 1360 nM | Clc1cccc(Nc2[nH]nc3ncnc(Nc4ccccc4)c23)c1 | 2560 nM | – | – | – | – | – |
| > 10000 nM | > 10000 nM | 9800 nM | 1500 nM | 270 nM | – | – | CC(C)(C)OC(=O)Nc1ccc(-c2[nH]nc3ncnc(Nc4cccc(Cl)c4)c23)cc1 | 4300 nM | – | – | – | – | – |
| 19000 nM | 10000 nM | > 10000 nM | 1500 nM | 30 nM | 5800 nM | > 10000 nM | COc1ccc(Nc2[nH]nc3ncnc(Nc4cccc(Cl)c4)c23)cc1 | 1030 nM | – | – | – | – | – |
| 4700 nM | > 10000 nM | 7800 nM | 800 nM | 8 nM | 4300 nM | 3400 nM | COc1cccc(Nc2[nH]nc3ncnc(Nc4cccc(Cl)c4)c23)c1 | 950 nM | – | – | – | – | – |
| – | – | – | – | 2710 nM | – | – | Cc1c(C)n(-c2ccccc2)c2ncnc(N)c12 | – | – | – | – | – | – |
| > 100000 nM | > 10000 nM | – | – | 800 nM | – | > 10000 nM | Nc1ncnc2c1c(-c1ccccc1)nn2-c1ccccc1 | – | – | – | – | – | > 50000 nM |
| > 1000 nM | > 10000 nM | 2400 nM | – | – | > 1000 nM | 1180 nM | Nc1ccc(Nc2[nH]nc3ncnc(Nc4cccc(Cl)c4)c23)cc1 | – | – | – | – | – | – |
| > 10000 nM | > 10000 nM | 2090 nM | 1500 nM | 26 nM | 16000 nM | > 10000 nM | Clc1cccc(CNc2[nH]nc3ncnc(Nc4cccc(Cl)c4)c23)c1 | 3190 nM | – | – | – | – | – |
| > 10000 nM | > 10000 nM | > 10000 nM | 1500 nM | 96 nM | > 100000 nM | 16500 nM | COc1ccc(-c2[nH]nc3ncnc(Nc4cccc(Cl)c4)c23)cc1 | 1600 nM | – | – | – | – | – |

| SMILES | IC50 [1] | IC50 [2] | IC50 [3] | IC50 [4] | IC50 [5] | IC50 [6] | IC50 [8] | IC50 (Balb/MK [7]) | IC50 [9] | T/C (A-431 [10]) | T/C (A-431 [11]) | T/C (A-431 [12]) | IC50 (Balb/MK [13]) |
| --- | --- | --- | --- | --- | --- | --- | --- | --- | --- | --- | --- | --- | --- |
| Clc1cccc(Nc2[nH]cnc3nnc(-c4ccccc4)c2-3)c1 | > 10000 nM | > 10000 nM | – | 30 nM | 19 nM | 2800 nM | 3760 nM | 820 nM | > 10000 nM | – | – | – | – |
| Nc1[nH]cnc2nnc(Nc3cccc(Cl)c3)c1-2 | 24000 nM | > 10000 nM | 6000 nM | 35000 nM | 160 nM | – | 410 nM | 14000 nM | – | – | – | – | – |
| Clc1cccc(Nc2ncnc3n[nH]c(Nc4cccc(Cl)c4)c23)c1 | 5900 nM | 10000 nM | 5300 nM | 250 nM | 330 nM | – | 1980 nM | 1400 nM | – | 25% and 31% | 46% | 41% | – |
| Oc1cccc(-c2[nH]nc3ncnc(Nc4cccc(Cl)c4)c23)c1 | > 10000 nM | > 10000 nM | 2 nM | 1500 nM | 26 nM | 200 nM | 180 nM | 990 nM | – | – | – | – | – |
| c1ccc(Nc2ncnc3n[nH]c(Nc4ccccc4)c23)cc1 | 6900 nM | > 10000 nM | 75000 nM | 12000 nM | 58 nM | – | 1960 nM | 8400 nM | – | – | – | – | – |
| Cc1cccc(Nc2ncnc3[nH]nc(Nc4cccc(Cl)c4)c23)c1 | 4700 nM | > 10000 nM | – | 150 nM | 130 nM | – | 1650 nM | 2700 nM | 8080 nM | 21% and 23% | 27% | 44% | – |
| Oc1ccc(Nc2[nH]nc3ncnc(Nc4cccc(Cl)c4)c23)cc1 | > 1000 nM | > 10000 nM | 400 nM | 40 nM | 8 nM | > 1000 nM | 150 nM | 1060 nM | – | – | – | – | – |
| Clc1cccc(Nc2[nH]nc3ncnc(NCc4ccccc4)c23)c1 | 4500 nM | > 10000 nM | > 10000 nM | 1500 nM | 870 nM | 9000 nM | > 10000 nM | 49900 nM | – | – | – | – | – |
| COc1ccc(CNc2[nH]nc3ncnc(Nc4cccc(Cl)c4)c23)cc1 | > 100000 nM | > 10000 nM | > 10000 nM | 20 nM | 7 nM | 5000 nM | > 10000 nM | 860 nM | – | – | – | – | – |
| Oc1cccc(Nc2[nH]nc3ncnc(Nc4cccc(Cl)c4)c23)c1 | 560 nM | > 10000 nM | 220 nM | 4 nM | 1 nM | 3000 nM | 260 nM | 460 nM | – | – | – | – | – |
| Nc1nc(N)c2c(Nc3cccc(Cl)c3)[nH]nc2n1 | 24000 nM | > 10000 nM | 6000 nM | 9000 nM | 220 nM | – | 410 nM | 2870 nM | – | – | – | – | – |
| Nc1ccc(-c2[nH]nc3ncnc(Nc4cccc(Cl)c4)c23)cc1 | 3600 nM | > 10000 nM | 4900 nM | 800 nM | 2 nM | 4500 nM | 3600 nM | 780 nM | – | – | – | – | – |
